According to patent US6551796B1, “Nucleic acid encoding urate transporter and methods of use thereof” (Mount Sinai School of Medicine, priority 1997, dated 2003):

What was measured:
Format in all cases: biochemical
[1] = molecular target: T1, recombinant UAT (urate transporter/channel) (Rattus norvegicus, UniProt P97840, L187H); experiment: Channel activity of recombinant rat UAT reconstituted in planar lipid bilayer (patch clamp recording); conditions: for effect on channel activity, cis (cytoplasmic) side: agent added to cis chamber / cytoplasmic side of UAT; for concentration that completely blocked channel activity: agent in trans chamber (extracellular side of UAT); for reversibility of block of channel activity: replacing the agent-containing solution with agent-free urate solution
T1 construct: 6-histidine metal chelating domain (pRSET A leader) (N); made in house; host or cells: E. coli BL21(DE3)pLysE, vector pRSET A
T1 sequence (P97840 1-322 isoform P97840-2 L155H): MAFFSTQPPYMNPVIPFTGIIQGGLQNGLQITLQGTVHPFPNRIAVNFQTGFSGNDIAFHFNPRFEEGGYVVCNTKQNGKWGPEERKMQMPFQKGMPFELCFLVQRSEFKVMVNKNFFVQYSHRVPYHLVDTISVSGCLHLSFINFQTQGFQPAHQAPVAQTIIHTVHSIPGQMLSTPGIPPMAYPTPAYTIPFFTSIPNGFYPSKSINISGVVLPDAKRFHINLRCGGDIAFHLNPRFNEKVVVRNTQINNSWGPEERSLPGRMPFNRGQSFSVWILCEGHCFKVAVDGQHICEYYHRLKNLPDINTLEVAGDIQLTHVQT
Method: (§1) A mixture of bovine phosphatidyl-ethanolamine (PE, 10 mg/ml), and phosphatidylserine (PS, 10 mg/ml) (Avanti Polar Lipids, Birmingham. Ala.) in a ratio of 1:1 (wt/wt) was evaporated to dryness under nitrogen. The resultant phospholipid pellet was suspended in 48 μl of a solution containing 220 mM KCl, CsCl or Cs2SO4 and 10 mM HEPES-NaOH at pH 7.4. Following the addition of 2 μl recombinant UAT protein (50-100 μg/ml), proteoliposomes were formed by sonicating the mixture for 30 sec at 80 kHz in a bath sonicator (Laboratory Supplies, Hicksville, N.Y.) as described by Leal-Pinto et al. (1995) J. Membrane Biol. 146:123. In some experiments, proteoliposomes were prepared with the same lipids but with 10 μl recombinant HIV-1 Tat protein, as described by Zagury et al. (1996) Cellular Pharm.—AIDS Sciences 3:97 at 380 μg/ml and 40 μl of 220 mM Cs2SO4, 10 mM HEPES-NaOH at pH 7.4. Fresh proteoliposomes were prepared for each experiment.
(§2) The lipid bilayer chamber was identical to that described by Leal-Pinto et al. (1995) J. Membrane Biol. 146:123. The two cups of the plexiglass bilayer chamber were each initially filled with 1 ml of a solution whose electrolyte composition was identical to that in which the proteoliposomes were prepared. A 1:1 (wt/wt) mixture of bovine brain PE (10 mg/ml) and PS (10 mg/ml) (Avanti Polar Lipids) was dried with a nitrogen stream, dissolved in decane (Sigma Chemical Co.) to 50 mg lipid/ml and then painted with a club-shaped glass rod onto a 50 um hole in a Teflon film (Type C-20, 12.5 um thick, Dupont Electronics, Wilmington, Del.) that was fitted between the two cups of the chamber. Offset potentials due to all junction potentials were corrected by using the zero adjust system of the patch clamp amplifier (Model PC-501, Warner Instrument Co.). The voltage was subsequently clamped at varying levels (−100 to +100 mV): voltage was generated and controlled by the patch clamp amplifier. If a stable resistance of at least 100 gigohms and a noise of less than 0.2 pA were maintained, the experiments were initiated.
(§3) Experiments were initiated by adding proteoliposomes to the trans chamber (1 μl of UAT or 5-50 μl of HIV-1 Tat proteoliposomes). The solution was stirred until fusion occurred. Fusion usually occurred within 2-3 minutes of the addition of UAT-containing proteoliposomes, evidenced by the presence of channel gating (clear transitions between the closed and open states). Once fusion occurred the stirrers were stopped and the solution in the trans chamber was replaced with 1 ml of an identical solution, without proteoliposomes, to limit further channel incorporation. In all experiments channel activity was initially evaluated in the presence of symmetrical solutions of 2.5 mM urate in either 220 mM KCl, CsCl, or Cs2SO4, 10 mM HEPES-NaOH, and 0.25 mM CaCl2 at pH 7.4. In some experiments channel activity was compared in the absence and presence of 5 mM Ba^+−. To evaluate channel selectivity, experiments were performed in symmetrical solutions of 2.5 mM urate, but with infinite gradients of K^+, Cs^−, Ca^−−, Cl^− and/or SO4^═ established by using the following combination of buffered solutions in the cis and trans chambers, respectively: a) CsCl and KCl, b) Cs2SO4 and CsCl, and c) Cs2SO4 with Ca^−+ and Cs2SO4 without Ca^−+. Selectivity was also evaluated in symmetrical solutions of 220 mM Cs2SO4, 10 mM HEPES-NaOH, and 0.25 mM CaCl2 at pH 7.4 in the presence of a 10:1 urate gradient: the 2.5 mM urate, buffered Cs2SO4 solution in the trans chamber was replaced with a Cs2SO4 solution containing 0.25 mM urate. In a final group of experiments, channel activity was compared in symmetrical solutions of 2.5 mM urate, 220 mM Cs2SO4, 10 mM HEPES-NaOH, and 0.25 mM CaCl2 at pH 7.4 before and after an increasing amount of non-immune IgG (up to 200 μg) or the IgG fraction of antiporcine uricase (up to 15 μg) was sequentially added to each side of the lipid bilayer. […]

[2] = molecular target: T2, hUAT (human urate transporter/channel, galectin 9) (Homo sapiens, UniProt O00182); experiment: Channel activity of recombinant human UAT (galectin 9) reconstituted in lipid bilayer
T2 construct: 6-histidine tag (N); made in house
T2 sequence (O00182 1-323 isoform O00182-2): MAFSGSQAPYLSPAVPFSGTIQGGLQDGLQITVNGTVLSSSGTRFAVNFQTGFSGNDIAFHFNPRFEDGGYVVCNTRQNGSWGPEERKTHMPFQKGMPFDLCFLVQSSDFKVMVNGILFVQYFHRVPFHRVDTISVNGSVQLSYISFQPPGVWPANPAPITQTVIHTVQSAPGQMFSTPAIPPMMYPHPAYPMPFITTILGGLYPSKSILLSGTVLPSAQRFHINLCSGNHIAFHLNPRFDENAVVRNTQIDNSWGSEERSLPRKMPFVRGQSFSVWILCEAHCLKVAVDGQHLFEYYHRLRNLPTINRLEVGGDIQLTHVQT
Method: Galactin 9 was reported to be a secreted neutrophil chemoattractant. However, galectin 9 has more than 75% amino acid homology to the rat urate transporter/channel. To test whether galectin 9 is the human plasma membrane-associated urate transporter channel, cDNA was generated by RT-PCR of RNA from WBC of a normal donor and fused with an amino terminal 6-histidine tag in a bacterial expression vector. Recombinant protein (hUAT) was prepared and then purified on a Ni-NTA column. hUTA was sonicated into liposomes, fused with a lipid bilayed, and channel activity was recorded. Channel activity was only detected in the presence of urate. […] This difference in voltage sensitivity is consistent with the absence of a positively charged amino acid in hUAT in a region of the putative voltage sensing loop within rat UAT.
In a continued search for local blocks of homology between rat and human UAT and known proteins, a highly significant block of homology to copper chaperones was detected in the carboxy terminus of both the rat and human UAT. Based on the possibility that this portion of UAT binds copper, like copper chaperones, experiments were conducted to determine whether copper was able to modulate UAT channel activity. Using rat and human recombinant UAT it was observed that copper plays an important role in modulating channel activity.
The rat and human urate transporter/channel amino acid sequence contains two galactose binding sites. In the molecular model of the urate transporter/channel, both of these sites reside in extracellular domains of the protein. One site is located between the putative first and second transmembrane domain, the second is located between the putative third and fourth transmembrane domains. Experiments indicate that the addition of lactose (less than 50 μM) to the side of the bilayer chamber that is believed to face the extracellular domains of the protein alters the biophysical properties of the human urate transporter channel. […] In vivo, this could result in increased urate excretion and ultimately a reduction in plasma urate concentration.

[3] = molecular target: T3, recombinant UAT (urate transporter/channel) (Rattus norvegicus, UniProt P97840); experiment: Channel activity of recombinant rat UAT reconstituted in planar lipid bilayer (patch clamp recording); conditions: 2.5 mM urate cis : 2.5 mM oxonate trans
T3 construct: 6-histidine metal chelating domain (pRSET A leader) (N); made in house; host or cells: E. coli BL21(DE3)pLysE, vector pRSET A
T3 sequence (P97840 1-322 isoform P97840-2 L155H): as the sequence (P97840 1-322 isoform P97840-2 L155H) above
Method: as §1, §2, §3

[4] = less than 1 μM copper added to the bathing solution
[5] = less than 50 μM on the side facing the extracellular domains

Nc1ncnc2c1ncn2[C@@H]1O[C@H](CO)[C@@H](O)[C@H]1O [adenosine]
effect on channel activity, cis (cytoplasmic) side [1]: failed to block channel activity | concentration that completely blocked channel activity ([1]; mean±SE): 4.6 ± 2.6 µM | effect on channel activity from the trans side of the bilayer [2]: blocked channel activity

[Ba+2] [Ba^+−]
effect on channel activity ([1]; 5 mM, symmetrical 2.5 mM urate and 220 mM KCl): failed to alter channel activity

[Cu] [copper]
effect on channel activity [1, 4]: significantly increases channel activity | effect on channel activity [2, 4]: significantly increases channel activity | open probability of the human channel after addition ([2]; less than 1 μM copper, from 5-15% before addition): 50-60%

OC[C@H]1O[C@@H](O[C@H]2[C@H](O)[C@@H](O)C(O)O[C@@H]2CO)[C@H](O)[C@@H](O)[C@H]1O (some centres unmarked) [lactose]
effect on current [2, 5]: increase in current | effect on stability of the channel in the lipid bilayer [2, 5]: apparent stabilization of the channel

O=C(O)c1cnccn1 [PZA, pyrazinoate]
effect on channel activity, cis (cytoplasmic) side [1]: without effect | concentration that completely blocked channel activity ([1]; mean±SE): 24.1 ± 8.9 µM | reversibility of block of channel activity [1]: reversed

O=c1[nH]c(=O)c2[nH]cnc2[nH]1 [xanthine]
effect on channel activity, cis (cytoplasmic) side [1]: blocked channel activity | concentration that completely blocked channel activity ([1]; mean±SE): 4.6 ± 1.5 µM | ratio of blocking concentration, extracellular side versus cytoplasmic face ([1]; complete block of channel activity): approximately one-tenth

O=C(O)c1nc(=O)[nH]c(=O)[nH]1 [oxonate]
channel activity under bi-ionic conditions [3]: ceased after approximately one hour | effect on channel activity, trans side ([1]; 250 μM on the trans side of the channel, symmetrical urate): not affected | concentration at which channel activity was 97% blocked ([1]; oxonate in cis (cytoplasmic) chamber, symmetrical 2.5 mM urate, mean±SE, n=3): 108 ± 16 µM | reversibility of block of channel activity [1]: reversed

NC(=O)c1cnccn1 [pyrazinamide]
effect on channel activity from the trans side of the bilayer [2]: blocked channel activity
